Measurements published in PubChem BioAssay (NCI).
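Cultured in 96-well plates, cells were exposed to test compound for 48 hours across five concentrations. At the GI50, growth is halved. TGI: total growth inhibition.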

Legend:
Assay in all cases: DTP human tumour cell line panel, 48 h
[1] = test system: HCT-15 colon
[2] = test system: OVCAR-8 ovarian
[3] = test system: SF-539 CNS
[4] = test system: LOX IMVI melanoma
[5] = test system: EKVX NSCLC
[6] = test system: NCI-H460 lung
[7] = test system: SF-268 CNS
[8] = test system: HS 578T breast
[9] = test system: NCI-H226 lung
[10] = test system: SR leukemia
[11] = test system: SF-295 CNS
[12] = test system: SK-MEL-5 melanoma
[13] = test system: MOLT-4 leukemia
[14] = test system: NCI-H522 lung
[15] = test system: SW-620 colon
[16] = test system: SK-MEL-28 melanoma
[17] = test system: KM12 colon
[18] = test system: DU-145 prostate
[19] = test system: MDA-MB-435
[20] = test system: SK-OV-3 ovarian
[21] = test system: NCI/ADR-RES ovarian
[22] = test system: SNB-19 CNS
[23] = test system: MCF7 breast
[24] = test system: OVCAR-4 ovarian
[25] = test system: COLO 205 colon
[26] = test system: A549 NSCLC
[27] = test system: OVCAR-5 ovarian
[28] = test system: SN12C renal
[29] = test system: CAKI-1 renal
[30] = test system: HCT-116 colon
[31] = test system: BT-549 breast
[32] = test system: HOP-92 NSCLC
[33] = test system: UO-31 renal
[34] = test system: K-562 leukemia
[35] = test system: A498 renal
[36] = test system: IGROV1 ovarian
[37] = test system: M14 melanoma
[38] = test system: NCI-H23 lung
[39] = test system: UACC-257 melanoma
[40] = test system: T-47D breast
[41] = test system: 786-0 renal
[42] = test system: PC-3 prostate
[43] = test system: SNB-75 CNS
[44] = test system: HL-60(TB) leukemia
[45] = test system: HOP-62 NSCLC
[46] = test system: CCRF-CEM leukemia
[47] = test system: TK-10 renal
[48] = test system: OVCAR-3 ovarian
[49] = test system: UACC-62 melanoma
[50] = test system: MDA-MB-231 breast
[51] = test system: ACHN renal
[52] = test system: HT29 colon
[53] = test system: HCC-2998 colon
[54] = test system: U251 CNS
[55] = test system: RXF 393 renal
[56] = test system: SK-MEL-2 melanoma
[57] = test system: MALME-3M melanoma

## COc1ccc(-c2cc(-c3ccccc3)nc(SCCCC(=O)NO)n2)cc1OC
[1]
  GI50: 0.406 µM
  TGI: 2.62 µM
[2]
  GI50: 0.49 µM
  TGI: 11.9 µM
[3]
  GI50: 1.35 µM
  TGI: 3.38 µM
[4]
  GI50: 1.07 µM
  TGI: 2.44 µM
[5]
  GI50: 1.18 µM
  TGI: 8.6 µM
[6]
  GI50: 0.621 µM
  TGI: 9.81 µM
[7]
  GI50: 2.15 µM
  TGI: 5.68 µM
[8]
  GI50: 1.41 µM
  TGI: 9.44 µM
[9]
  GI50: 1.69 µM
  TGI: 5.54 µM
[10]
  GI50: 0.339 µM
  TGI: 20.4 µM
[11]
  GI50: 0.887 µM
  TGI: 2.51 µM
[12]
  GI50: 0.631 µM
  TGI: 2.09 µM
[13]
  GI50: 0.832 µM
  TGI: 11.4 µM
[14]
  GI50: 1.32 µM
  TGI: 5.36 µM
[15]
  GI50: 0.539 µM
  TGI: 11.3 µM
[16]
  GI50: 1.23 µM
  TGI: 3.66 µM
[17]
  GI50: 2.83 µM
  TGI: 11 µM
[18]
  GI50: 1.41 µM
  TGI: 6.85 µM
[19]
  GI50: 1.74 µM
  TGI: 6.28 µM
[20]
  GI50: 1.69 µM
  TGI: 5.05 µM
[21]
  GI50: 0.793 µM
  TGI: 4.35 µM
[22]
  GI50: 2.29 µM
  TGI: 10.9 µM
[23]
  GI50: 2.3 µM
  TGI: 9.63 µM
[24]
  GI50: 1.68 µM
  TGI: 7.76 µM
[25]
  GI50: 2.1 µM
  TGI: 5.95 µM
[26]
  GI50: 2.06 µM
  TGI: 7.05 µM
[27]
  GI50: 1.16 µM
  TGI: 5.43 µM
[28]
  GI50: 1.54 µM
  TGI: 6.15 µM
[29]
  GI50: 0.452 µM
  TGI: 2.83 µM
[30]
  GI50: 0.701 µM
  TGI: 10 µM
[31]
  GI50: 3.32 µM
  TGI: 12.4 µM
[32]
  GI50: 1.14 µM
  TGI: 3.99 µM
[33]
  GI50: 0.338 µM
  TGI: 1.48 µM
[34]
  GI50: 0.812 µM
  TGI: > 100 µM
[35]
  GI50: 0.345 µM
  TGI: 1.72 µM
[36]
  GI50: 1.64 µM
  TGI: 5.05 µM
[37]
  GI50: 1.02 µM
  TGI: 2.82 µM
[38]
  GI50: 1.57 µM
  TGI: 4.8 µM
[39]
  GI50: 1.43 µM
  TGI: 7.94 µM
[40]
  GI50: 0.824 µM
  TGI: 9.39 µM
[41]
  GI50: 1.28 µM
  TGI: 5.02 µM
[42]
  GI50: 1.39 µM
  TGI: 5.62 µM
[43]
  GI50: 1.09 µM
  TGI: 4.51 µM
[44]
  GI50: 3.24 µM
  TGI: 11.7 µM
[45]
  GI50: 0.626 µM
  TGI: 3.38 µM
[46]
  GI50: 0.398 µM
  TGI: 11.1 µM
[47]
  GI50: 0.409 µM
  TGI: 8.87 µM
[48]
  GI50: 1.32 µM
  TGI: 5.36 µM
[49]
  GI50: 1.06 µM
  TGI: 3.11 µM
[50]
  GI50: 1.56 µM
  TGI: 8.27 µM
[51]
  GI50: 0.41 µM
  TGI: 1.81 µM
[52]
  GI50: 2.08 µM
  TGI: 7.06 µM
[53]
  GI50: 1.44 µM
  TGI: 3.59 µM
[54]
  GI50: 1.51 µM
  TGI: 7.69 µM
[55]
  GI50: 1.01 µM
  TGI: 2.78 µM
[56]
  GI50: 1.76 µM
  TGI: 7.39 µM
[57]
  GI50: 0.761 µM
  TGI: 5.71 µM

## CCOC(=O)N1C/C(=C/c2ccc(Cl)cc2)C(=O)/C(=C/c2ccc(Cl)cc2)C1
[1]
  GI50: 2.18 µM
  TGI: 7.24 µM
[2]
  GI50: 3.81 µM
  TGI: 86.4 µM
[3]
  GI50: 2.67 µM
  TGI: 7.81 µM
[4]
  GI50: 1.89 µM
  TGI: 4.22 µM
[6]
  GI50: 3.86 µM
  TGI: 16.4 µM
[7]
  GI50: 3.86 µM
  TGI: 14.7 µM
[8]
  GI50: 3.94 µM
  TGI: 41.8 µM
[9]
  GI50: 16.9 µM
  TGI: 52 µM
[10]
  GI50: 1.49 µM
  TGI: > 100 µM
[12]
  GI50: 3.43 µM
  TGI: 13.1 µM
[13]
  GI50: 4.65 µM
  TGI: > 100 µM
[14]
  GI50: 9.77 µM
  TGI: 22.4 µM
[15]
  GI50: 2.06 µM
  TGI: 4.73 µM
[16]
  GI50: 3.43 µM
  TGI: 12.7 µM
[17]
  GI50: 2.1 µM
  TGI: 4.39 µM
[18]
  GI50: 4.36 µM
  TGI: 15.9 µM
[19]
  GI50: 3.33 µM
  TGI: 13 µM
[20]
  GI50: 5.42 µM
  TGI: 20.8 µM
[21]
  GI50: 7.45 µM
  TGI: 95.6 µM
[22]
  GI50: 4.66 µM
  TGI: 18.4 µM
[23]
  GI50: 1.55 µM
  TGI: 8.04 µM
[24]
  GI50: 3.35 µM
  TGI: 14.4 µM
[25]
  GI50: 2.96 µM
  TGI: 8.83 µM
[26]
  GI50: 3.06 µM
  TGI: 20.7 µM
[27]
  GI50: 4.43 µM
  TGI: 19.8 µM
[28]
  GI50: 2.84 µM
  TGI: 11.7 µM
[29]
  GI50: 4.57 µM
  TGI: > 100 µM
[30]
  GI50: 1.04 µM
  TGI: 2.72 µM
[31]
  GI50: 2.41 µM
  TGI: 5.6 µM
[32]
  GI50: 10.5 µM
  TGI: 32 µM
[33]
  GI50: 2.36 µM
  TGI: 7.2 µM
[34]
  GI50: 3.34 µM
  TGI: > 100 µM
[35]
  GI50: 12 µM
  TGI: 26.4 µM
[36]
  GI50: 3.52 µM
  TGI: 13 µM
[37]
  GI50: 4.23 µM
  TGI: 17.8 µM
[38]
  GI50: 5.37 µM
  TGI: 27.7 µM
[39]
  GI50: 8.54 µM
  TGI: 23.9 µM
[40]
  GI50: 3.74 µM
  TGI: 35.5 µM
[41]
  GI50: 2.08 µM
  TGI: 4.35 µM
[42]
  GI50: 2.94 µM
  TGI: 15 µM
[43]
  GI50: 3.15 µM
  TGI: 16.2 µM
[44]
  GI50: 7.04 µM
  TGI: 88.7 µM
[45]
  GI50: 2.47 µM
  TGI: 5.72 µM
[46]
  GI50: 3.24 µM
  TGI: > 100 µM
[47]
  GI50: 5.01 µM
  TGI: 17.6 µM
[48]
  GI50: 2.22 µM
  TGI: 4.57 µM
[49]
  GI50: 3 µM
  TGI: 14.3 µM
[50]
  GI50: 2.88 µM
  TGI: 9.37 µM
[51]
  GI50: 3.04 µM
  TGI: 10.5 µM
[52]
  GI50: 1.97 µM
  TGI: 3.95 µM
[53]
  GI50: 2.32 µM
  TGI: 5.29 µM
[54]
  GI50: 1.98 µM
  TGI: 4.18 µM
[55]
  GI50: 1.69 µM
  TGI: 3.34 µM
[56]
  GI50: 19.6 µM
  TGI: 40.9 µM
[57]
  GI50: 15.4 µM
  TGI: 32 µM
